Data on 1 compound can be found in BindingDB's records for patent US20250011311 (Astrazeneca, 2025).

This experiment deals with T1, 17-beta-hydroxysteroid dehydrogenase 13 (Homo sapiens, UniProt Q7Z5P4).
T1 sequence (Q7Z5P4 whole entry): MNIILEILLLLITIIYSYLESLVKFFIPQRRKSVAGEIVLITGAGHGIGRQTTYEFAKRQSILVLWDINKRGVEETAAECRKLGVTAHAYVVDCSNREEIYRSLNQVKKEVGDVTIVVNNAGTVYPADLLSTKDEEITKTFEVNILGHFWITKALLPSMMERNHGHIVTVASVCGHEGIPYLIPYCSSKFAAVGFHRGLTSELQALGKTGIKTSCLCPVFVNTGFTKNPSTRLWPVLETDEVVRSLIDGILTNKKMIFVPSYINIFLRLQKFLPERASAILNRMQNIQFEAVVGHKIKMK
Kind of experiment: In Vitro 17bHSD13 Enzyme Assay. On the procedure: Final assay conditions were 80 nM of 17bHSD13, 0.5 mM of NAD, 20 μM Estradiol and various concentrations of compound in buffer (5 mM EDTA (TEKNOVA E0306), 0.01% DDM (AFFYMETRIX D310) in 50 mM Tris-Cl, pH 7.4). After 2.5 h the reaction were stopped by addition of 20 μl of 0.6% Formic acid (MERCK 5.33002) and samples were analyzed using LC-MS/MS.SCIEX LC-MS/MS system: Sample was injected with CTC analytical injector, SHIMATZU LC pumps LC20 and analyzed on the SCIEX API 5000 LCMSMS system with the following settings. Samples were chromatographed on a WATERS, […], C8, 3.5 μm, 2.1×50 mm) column at constant flow rate of 0.5 mL/min. The mobile phases consist of A (water with 0.2% formic acid) and B (acetonitrile with 0.2% formic acid). The LC gradient profile is as follows: 50% B during 0 to 0.5 min, a linear increase to 100% B during 0.5 to 1 min, hold at 100% B during 1 to 1.6 min then back to 50% B from 1.6 to 2 min. The run time was 2 min with retention times of approximately 0.8 and 1.07 min for Estradiol and Estrone, respectively. Detection was performed on a API 5000 LC/MS/MS system with a triple quadrupole mass spectrometer, a TURBO V ion source, in multiple reaction monitoring (MRM) mode at positive polarity with APCI probe. The MRM pairs were m/z 273.1 to m/z 107.0 and m/z 271.3 to 107.0. for Estradiol and Estrone, respectively.

`CN(C(=O)c1noc(-c2cc(F)c(F)c(O)c2F)n1)c1cccc(C#N)c1` [US20250011311, Example 63] gave an IC50 of 151 nM.
